Laboratory results: article PMC5458052 (Nature Communications, 2017)
Values joined by “and” are separate entries in the source; they are usually repeats but may differ in a detail not shown here. Equal entries are not always repeated. Where two headings read alike, the source gives them in different places.

Key:
[1] = system: P. vivax clinical field isolates; test: microbe, parasite or virus in culture; type: cell-based; settings: Plasmodium vivax, read-out: Median IC50
[2] = system: P. falciparum clinical field isolates; test: microbe, parasite or virus in culture; type: cell-based; settings: Plasmodium falciparum, read-out: Median IC50
[3] = system: P. falciparum lab lines FC27 and K1; test: microbe, parasite or virus in culture; type: cell-based; settings: Plasmodium falciparum, median of 3 independent experiments
[4] = system: P. falciparum 3D7; test: In vitro antimalarial activity, drug sensitivity testing (3D7); type: cell-based; settings: Plasmodium falciparum
[5] = system: P. berghei; set-up: method as in Charman et al. 12; settings: ref Charman et al. 12, cited from earlier work
[6] = Rat PK iv 1 mg/kg (Chem Partners); settings: in vivo
[7] = Rat blood stability in vitro; settings: male, Sprague Dawley, freshly collected whole blood
[8] = system: P. berghei; set-up: species or system Plasmodium berghei
[9] = In vitro intrinsic clearance, human liver microsomes (Chem Partners); type: in vitro ADME; settings: human (H) liver microsomes
[10] = In vitro intrinsic clearance, rat liver microsomes (Chem Partners); type: in vitro ADME; settings: rat (R) liver microsomes
[11] = Metabolic stability and metabolite profile in mouse liver microsomes; type: in vitro ADME; settings: for Relative Peak Area (expressed as % total metabolite peak area generated over 60 minutes): metabolite of E209, mouse liver microsomes with NADPH; for Degradation half-life / In vitro CLint / Microsome-Predicted EH: mouse liver microsomes
[12] = Metabolic stability and metabolite profile in human liver microsomes; settings: for Relative Peak Area (expressed as % total metabolite peak area generated over 60 minutes): metabolite of E209, human liver microsomes with NADPH; for In vitro CLint / Microsome-Predicted EH / Degradation half-life: human liver microsomes
[13] = Metabolic stability and metabolite profile in rat liver microsomes; type: in vitro ADME; settings: for Relative Peak Area (expressed as % total metabolite peak area generated over 60 minutes): metabolite of E209, rat liver microsomes with NADPH; for Degradation half-life / In vitro CLint / Microsome-Predicted EH: rat liver microsomes
[14] = system: African variant G6PD deficient human red blood cells (huRBC); settings: 7 days post-treatment; E209 up to 50 mg kg^−1 day^−1 for 3 days; PQ 25 mg/kg/day for 3 days
[15] = Solubility at 37°C over a 6 hour incubation; type: physicochemical; settings: free base equivalent
[16] = system: P. falciparum strain 3D7A; set-up: method as in PMID 22383983; settings: cited from earlier work
[17] = Mammalian cell cytotoxicity; type: cell-based; settings: human; HeLa cells, n=3; read-out: cytotoxicity median IC50
[18] = system: P. falciparum strains (sensitive and resistant); test: microbe, parasite or virus in culture; type: cell-based; settings: Plasmodium falciparum, mean ± SD n=3
[19] = 10 × IC50, previous results on standard anti-malarials

Clc1ccc2c(N3CCN(CCCN4CCN(c5ccnc6cc(Cl)ccc56)CC4)CC3)ccnc2c1 [Piperaquine, piperaquine]
IC50 [1]: 33.8 nM
IC50 [2]: 35.6 nM
IC50 ([3]; K1, FC27 (CQ S) lab line): 54.6 nM
IC50 ([3]; K1, K1 (CQ R) lab line): 75.5 nM

CCN(CC)Cc1cc(Nc2ccnc3cc(Cl)ccc23)ccc1O [Amodiaquine, amodiaquine]
IC50 [1]: 50.6 nM
IC50 [2]: 25.6 nM
IC50 ([3]; K1, FC27 (CQ S) lab line): 33.1 nM
IC50 ([3]; K1, K1 (CQ R) lab line): 39.3 nM

c1cc([C@H]2CC[C@]3(CC2)OO[C@]2(O3)C3CC4CC(C3)CC2C4)ccc1OCCN1CCOCC1 [OZ439]
IC50 [4]: 5.1 ± 0.81 nM
cures ([5]; animals cured of n=3, single oral dose 30 mg/kg): 3
In vivo (Pb) MSD (days) at 1 x 30 mg/kg ([5]; single oral dose 30 mg kg^-1, P. berghei infected mice): 30 days

c1cc(C2CCC3(CC2)OOC2(OO3)C3CC4CC(C3)CC2C4)ccc1OCCCN1CCOCC1 (stereo not shown) [Compound 5]
clearance [6]: 6.5 mL/min/kg
half-life [6]: 1.5 h
half-life at 1 µM [7]: 15 h
IC50 [4]: 7.5 ± 0.2 nM
In vivo (Pb) MSD (days) at 1 x 30 mg/kg [8]: 16 days
CLint scaled [9]: 147 mL/min/kg
CLint scaled [10]: 75 mL/min/kg

CS(=O)(=O)N1CCN(CCCOc2ccc(C3CCC4(CC3)OOC3(OO4)C4CC5CC(C4)CC3C5)cc2)CC1 (stereo not shown) [Compound 7]
clearance [6]: 3.5 mL/min/kg
half-life [6]: 3.2 h
half-life at 1 µM [7]: 15 h
IC50 [4]: 3.7 ± 0.1 nM
In vivo (Pb) MSD (days) at 1 x 30 mg/kg [8]: 14 (14, 14, 14) days
CLint scaled [9]: 238 mL/min/kg
CLint scaled [10]: 29 mL/min/kg

O=C1CCC(c2ccc(OCCN3CCC(F)CC3)cc2)CC1 [Compound M-182]
Relative Peak Area (expressed as % total metabolite peak area generated over 60 minutes) [11]: 27%
Relative Peak Area (expressed as % total metabolite peak area generated over 60 minutes) [12]: 11%
Relative Peak Area (expressed as % total metabolite peak area generated over 60 minutes) [13]: 13%

CS(=O)(=O)N1CCN(CCOc2ccc(C3CCC4(CC3)OOC3(OO4)C4CC5CC(C4)CC3C5)cc2)CC1 (stereo not shown) [Compound 6]
clearance [6]: 3.5 mL/min/kg
half-life [6]: 3.2 h
half-life at 1 µM [7]: 12 h
IC50 [4]: 3.5 ± 0.2 nM
In vivo (Pb) MSD (days) at 1 x 30 mg/kg [8]: 19 days and 19.3 (14, 30,14) days
CLint scaled [9]: 257 mL/min/kg
CLint scaled [10]: 38 mL/min/kg

[O-][N+]1(CCOc2ccc(C3CCC4(CC3)OOC3(OO4)C4CC5CC(C4)CC3C5)cc2)CCC(F)CC1 (stereo not shown) [M+16 (IV)]
Relative Peak Area (expressed as % total metabolite peak area generated over 60 minutes) [11]: 9%
Relative Peak Area (expressed as % total metabolite peak area generated over 60 minutes) [12]: 4%
Relative Peak Area (expressed as % total metabolite peak area generated over 60 minutes) [13]: 50%

OC1CCC(c2ccc(OCCN3CCC(F)CC3)cc2)CC1 (stereo not shown) [Compound M-180]
Relative Peak Area (expressed as % total metabolite peak area generated over 60 minutes) [11]: 20%
Relative Peak Area (expressed as % total metabolite peak area generated over 60 minutes) [12]: 10%
Relative Peak Area (expressed as % total metabolite peak area generated over 60 minutes) [13]: 9%

FC1(F)CCN(CCOc2ccc(C3CCC4(CC3)OOC3(OO4)C4CC5CC(C4)CC3C5)cc2)CC1 (stereo not shown) [Compound 8]
clearance [6]: 1.3 mL/min/kg
half-life [6]: 2.8 h
half-life at 1 µM [7]: 16 h
IC50 [4]: 8.5 ± 0.6 nM
CLint scaled [9]: 107 mL/min/kg
CLint scaled [10]: 60 mL/min/kg

COc1cc(NC(C)CCCN)c2ncccc2c1 (stereo not shown) [primaquine, reference compound]
loss of huRBC [14]: induced significant loss of huRBC

CS(=O)(=O)O.c1cc(C2CCC3(CC2)OOC2(OO3)C3CC4CC(C3)CC2C4)ccc1CN1CCOCC1 (stereo not shown) [N205 mesylate]
Solubility ([15]; 0.01 N HCl, media pH 2.0, 37°C, 1 h): 250 µg/mL
Solubility ([15]; 0.01 N HCl, media pH 2.0, 37°C, 4 h): 172 µg/mL
Solubility ([15]; 0.01 N HCl, media pH 2.0, 37°C, 6 h): 155 µg/mL
Solubility ([15]; 0.1 N HCl, media pH 1.0, 37°C, 1 h): 21.2 µg/mL
Solubility ([15]; 0.1 N HCl, media pH 1.0, 37°C, 4 h): 17.2 µg/mL
Solubility ([15]; 0.1 N HCl, media pH 1.0, 37°C, 6 h): 16.0 µg/mL
Solubility ([15]; FaSSIF blank, 37°C, 1 h): < 0.1 µg/mL
Solubility ([15]; FaSSIF blank, 37°C, 4 h): < 0.1 µg/mL
Solubility ([15]; FaSSIF blank, 37°C, 6 h): < 0.1 µg/mL
Solubility ([15]; FaSSIF, media pH 6.5, 37°C, 1 h): 24.0 µg/mL
Solubility ([15]; FaSSIF, media pH 6.5, 37°C, 4 h): 18.1 µg/mL
Solubility ([15]; FaSSIF, media pH 6.5, 37°C, 6 h): 26.7 µg/mL
Solubility ([15]; FeSSIF blank, 37°C, 1 h): 2.3 µg/mL
Solubility ([15]; FeSSIF blank, 37°C, 4 h): 0.9 µg/mL
Solubility ([15]; FeSSIF blank, 37°C, 6 h): 1.2 µg/mL
Solubility ([15]; FeSSIF, media pH 5.0, 37°C, 1 h): 1089 µg/mL
Solubility ([15]; FeSSIF, media pH 5.0, 37°C, 4 h): 755 µg/mL
Solubility ([15]; FeSSIF, media pH 5.0, 37°C, 6 h): 783 µg/mL
Solubility ([15]; Phosphate buffer, media pH 7.4, 37°C, 1 h): < 0.1 µg/mL
Solubility ([15]; Phosphate buffer, media pH 7.4, 37°C, 4 h): < 0.1 µg/mL
Solubility ([15]; Phosphate buffer, media pH 7.4, 37°C, 6 h): < 0.1 µg/mL

C[C@@H]1CC[C@H]2[C@@H](C)C(=O)O[C@@H]3O[C@@]4(C)CC[C@@H]1[C@]32OO4 [Artemisinin, artemisinin]
Lag phase [16]: 0 h
Log PRR [16]: > 4.8
PCT 99.9 % [16]: < 24 h
Slope [16]: −0.101

OC(c1cc(C(F)(F)F)nc2c(C(F)(F)F)cccc12)C1CCCCN1 (stereo not shown) [Mefloquine, mefloquine]
IC50 [1]: 18 nM
IC50 [2]: 12.7 nM
IC50 ([3]; K1, FC27 (CQ S) lab line): 56.2 nM

c1cc(C2CCC3(CC2)OOC2(OO3)C3CC4CC(C3)CC2C4)ccc1OCCN1CCOCC1 (stereo not shown) [Compound 4]
clearance [6]: 7.1 mL/min/kg
half-life [6]: 1.1 h
half-life at 1 µM [7]: 14 h
IC50 [4]: 10 ± 1 nM
CLint scaled [9]: 135 mL/min/kg
CLint scaled [10]: 86 mL/min/kg

C[C@H]1[C@@H](O)O[C@@H]2O[C@@]3(C)CC[C@H]4[C@H](C)CC[C@@H]1[C@@]24OO3 [DHA, dihydroartemisinin, reference compound]
IC50 [17]: 400 nM

CCc1nc(N)nc(N)c1-c1ccc(Cl)cc1 [Pyrimethamine, pyrimethamine]
Lag phase [16, 19]: 24 h
Log PRR [16, 19]: 3.7
PCT 99.9 % [16, 19]: 57 h
Slope [16, 19]: −0.077

c1cc(C2CCC3(CC2)OOC2(OO3)C3CC4CC(C3)CC2C4)ccc1CN1CCOCC1 (stereo not shown) [Compound N205]
Degradation half-life ([11]; substrate 1 µM): 0.8 h
In vitro CLint ([11]; substrate 1 µM): 37 µL/min/mg protein
Microsome-Predicted EH ([11]; substrate 1 µM): 0.44
Degradation half-life ([11]; substrate 5 µM): 1.45 h
In vitro CLint ([11]; substrate 5 µM): 20 µL/min/mg protein
Microsome-Predicted EH ([11]; substrate 5 µM): 0.30
In vitro CLint ([12]; substrate 1 µM): 51 µL/min/mg protein
Microsome-Predicted EH ([12]; substrate 1 µM): 0.67
Degradation half-life ([12]; substrate 1 µM, NADPH-dependent): 0.567 h
Degradation half-life ([12]; substrate 5 µM): 0.717 h
In vitro CLint ([12]; substrate 5 µM): 41 µL/min/mg protein
Microsome-Predicted EH ([12]; substrate 5 µM): 0.62
Degradation half-life ([13]; substrate 1 µM): 0.25 h
In vitro CLint ([13]; substrate 1 µM): 118 µL/min/mg protein
Microsome-Predicted EH ([13]; substrate 1 µM): 0.75
Degradation half-life ([13]; substrate 5 µM): 0.333 h
In vitro CLint ([13]; substrate 5 µM): 89 µL/min/mg protein
Microsome-Predicted EH ([13]; substrate 5 µM): 0.69

O=C1C(O)=C([C@H]2CC[C@H](c3ccc(Cl)cc3)CC2)C(=O)c2ccccc21 [Atovaquone, atovaquone]
Lag phase [16, 19]: 48 h
Log PRR [16, 19]: 2.9
PCT 99.9 % [16, 19]: 81 h
Slope [16, 19]: −0.060

CCN(CC)CCCC(C)Nc1ccnc2cc(Cl)ccc12 (stereo not shown) [Chloroquine, chloroquine]
Lag phase [16]: 0 h
PCT 99.9 % [16]: 34 h
Slope [16]: −0.094
IC50 [1]: 147 nM
IC50 [2]: 85.5 nM
IC50 ([3]; K1, K1 (CQ R) lab line): 212 nM
IC50 ([18]; DD2, strain Dd2 (chloroquine resistant)): 150 ± 25.7 nM
IC50 ([18]; HB3, strain HB3 (chloroquine sensitive)): 9 ± 1.5 nM
IC50 ([18]; NF54, strain NF54 (chloroquine sensitive)): 5.9 ± 1 nM
IC50 ([18]; TM90C2B, strain TM90C2B (chloroquine resistant)): 121 ± 20.6 nM
IC50 ([18]; strain 7G8 (chloroquine resistant)): 55 ± 9.4 nM
IC50 ([18]; strain D6 (chloroquine sensitive)): 8.6 ± 1.5 nM
IC50 ([18]; strain FCB (chloroquine resistant)): 66 ± 11.3 nM
IC50 ([18]; strain K1 (chloroquine resistant)): 173 ± 29.5 nM
IC50 ([18]; strain V1/S (chloroquine resistant)): 194 ± 33 nM
